The supplement of paper PMC3068080

Key:
TGFBR1 mRNA [1] = experiment: remaining TGFBR1 mRNA relative to control siRNA (off-target knock-down) (fraction of control); quantification method: qPCR (R1), branched DNA (R2); higher = less knock-down
Description: (§1)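 Screen-hit siRNA duplexes (19-mer plus 3' dTdT overhang) were transiently transfected into HaCaT cells in 12-well plates. After 48 h, TGFBR1 and TGFBR2 mRNA were quantified by branched DNA assay (QuantiGene, normalised to HPRT1) or by SYBR qPCR (normalised to HPRT1/SMAD4). Values are the remaining mRNA relative to control-siRNA-transfected cells; 1-2 biological replicates.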

TGFBR2 mRNA [2] = experiment: remaining TGFBR2 mRNA relative to control siRNA (off-target knock-down) (fraction of control); quantification method: qPCR (R1), branched DNA (R2); higher = less knock-down
Description: as §1

TGFBR1 mRNA [3] = experiment: remaining TGFBR1 mRNA relative to control siRNA (off-target knock-down) (fraction of control); quantification method: qPCR; higher = less knock-down
Description: as §1

TGFBR2 mRNA [4] = experiment: remaining TGFBR2 mRNA relative to control siRNA (off-target knock-down) (fraction of control); quantification method: qPCR; higher = less knock-down
Description: as §1

| Sequence | remaining TGFBR1 mRNA (TGFBR1 mRNA [1]) | remaining TGFBR2 mRNA (TGFBR2 mRNA [2]) | remaining TGFBR1 mRNA (TGFBR1 mRNA [3]) | remaining TGFBR2 mRNA (TGFBR2 mRNA [4]) |
| --- | --- | --- | --- | --- |
| AUAGACCAUCCCCCUUCUUTT | 0.46 | 0.95 | – | – |
| AUGAUGUCAUCGGCUGUGGTT | – | – | 0.68 | 0.15 |
